Test results reported in patent publication EP0336417A2, “Phosphonate initiators for light cured compositions” (DENTSPLY INTERNATIONAL, INC., priority 1988, dated 1989).

Assay: Solubility of initiator in NCO/TEGDMA resin
Assay type: physicochemical
Settings: not soluble above about 2%; percentages by weight
From the text: NCO/TEGDMA is a resin blend described in copending SN 040, 636 and used as illustrated in U.S. patent 4,514,174 and comprises a blend of NCO, the reaction product of hexamethylene diisocyanate (HMDI) and Bis-GMA [drawing 4] , and triethyleneglycol dimethacrylate (TEGDMA). At concentrations above about 2%, the benzoyl di (2,6 dimethylphenyl) phosphonate is not soluble in NCO/-TEGDMA resin. When used with an NCO/-TEGDMA resin in concentrations up to about 2%, however, the resin can be cured to a clear, hard film.

## Cc1cccc(C)c1OP(=O)(Oc1c(C)cccc1C)C(=O)c1ccccc1 [Benzoyl di-(2,6-dimethylphenyl) phosphonate]
  concentration up to which soluble in NCO/TEGDMA resin: about 2%
